The test system of the assay is HCV proteins in Rep5.1 cells (replicon cell line). Put plainly: Inhibitory activity of HCV: cell-based ELISA in replicon cell line Rep5.1 (decrease of HCV proteins). Also noted: species or system hepatitis C virus. As to conditions: Rep5.1 cells, 72 hours with drug. The essentials:
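HCV protein loss was quantified by ELISA on methanol/acetone-fixed cells 72 h after drug addition, probing with selected HCV-positive human plasma, and IC50 was defined as 50% reduction relative to untreated wells. The cells were Rep5.1 replicon cells cultured in DMEM-10 with 500 μg/ml G418, plated at 5000 per well and dosed with serial dilutions after 4 h attachment.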
Background: An ELISA detects its analyte on a solid surface through an enzyme-linked reagent.

Setting [1] is: Hepatitis C virus, 72 h, concentration at which 50% of HCV proteins was decreased, Table 2, read-out: IC50.
Where [2] appears, read: Hepatitis C virus, 72 h, decrease of HCV proteins measured by HCV antibody, Table 1, read-out: Level (IC50 values classified).

The term IC50 denotes the point on the concentration scale where inhibition reaches its midpoint.

Structures are written as SMILES. Where two headings read alike, the source gives them in different places. A value given as a limit tells only on which side of the number the result lay.

With `CC1=C(C(=O)OCCc2cc(Cl)ccc2[N+](=O)[O-])C(CO)NC(=S)N1` (centres unmarked) [54″, 4-hydroxymethyl-6-methyl-2-thioxo-1,2,3,4-tetrahydro-pyrimidine-5-carboxylic acid 2-(5-chloro-2-nitro-phenyl)-ethyl ester], the IC50 is 8 µM under setting [1] and 1 to 10 µM under setting [2].

`CC1=C(C(=O)OCCCCSc2nc3ccccc3s2)C(CF)NC(=S)N1` (centres unmarked) [55′, 4-fluoromethyl-6-methyl-2-thioxo-1,2,3,4-tetrahydro-pyrimidine-5-carboxylic acid 4-(benzothiazol-2-ylsulfanyl)-butyl ester]: the IC50 by setting is: under setting [1], 1.6 µM; under setting [2], 1 to 10 µM.

Consider `CC1=C(C(=O)OCCc2ccc(C)c(F)c2)C(CO)NC(=S)N1` (centres unmarked) [55″, 4-hydroxymethyl-6-methyl-2-thioxo-1,2,3,4-tetrahydro-pyrimidine-5-carboxylic acid 2-(3-fluoro-4-methyl-phenyl)-ethyl ester], for which the IC50 runs as follows: under setting [1], 0.5 µM; under setting [2], under 1 µM.

As for `CC1=C(C(=O)OCCCc2ccc(F)cc2)C(CF)NC(=S)N1` (centres unmarked) [56′, 4-fluoromethyl-6-methyl-2-thioxo-1,2,3,4-tetrahydro-pyrimidine-5-carboxylic acid 3-(4-fluorophenyl)-propyl ester], the IC50 is, setting by setting: under setting [1], 2.4 µM; under setting [2], 1 to 10 µM.

As to `COc1ccc(Cl)cc1CCOC(=O)C1=C(C)NC(=S)NC1CO` (centres unmarked) [56″, 4-hydroxymethyl-6-methyl-2-thioxo-1,2,3,4-tetrahydro-pyrimidine-5-carboxylic acid 2-(5-chloro-2-methoxy-phenyl)-ethyl ester], the IC50 reads like this: under setting [1], 0.6 µM; under setting [2], under 1 µM.

As to `O=C(OCCc1ccsc1)C1=C(CF)NC(=S)NC1` [57′, 6-fluoromethyl-2-thioxo-1,2,3,4-tetrahydro-pyrimidine-5-carboxylic acid 2-thiophen-3-yl-ethyl ester], the IC50 by setting is: under setting [1], 10 µM; under setting [2], 1 to 10 µM.

Take `CC1=C(C(=O)OCCc2cc(F)cc(F)c2)C(CO)NC(=S)N1` (centres unmarked) [57″, 4-hydroxymethyl-6-methyl-2-thioxo-1,2,3,4-tetrahydro-pyrimidine-5-carboxylic acid 2-(3,5-difluoro-phenyl)-ethyl ester]: the IC50 was 6.4 µM under setting [1] and 1 to 10 µM under setting [2].

Take `CC1=C(C(=O)OCCCc2cc3ccccc3s2)C(CF)NC(=S)N1` (centres unmarked) [58′, 4-fluoromethyl-6-methyl-2-thioxo-1,2,3,4-tetrahydro-pyrimidine-5-carboxylic acid 3-benzo[b]thiophen-2-yl-propyl ester]: the IC50 is, setting by setting: under setting [1], 8 µM; under setting [2], 1 to 10 µM.

Take `CC1=C(C(=O)OCCc2ccc(F)cc2Cl)C(CO)NC(=S)N1` (centres unmarked) [58″, 4-hydroxymethyl-6-methyl-2-thioxo-1,2,3,4-tetrahydro-pyrimidine-5-carboxylic acid 2-(2-chloro-4-fluoro-phenyl)-ethyl ester]: the IC50 runs as follows: under setting [1], 1.8 µM; under setting [2], 1 to 10 µM.

As to `COCCN(C)c1ccc(CCCOC(=O)C2=C(C)NC(=S)NC2CF)cc1` (centres unmarked) [59′, 4-fluoromethyl-6-methyl-2-thioxo-1,2,3,4-tetrahydro-pyrimidine-5-carboxylic acid 3-{4-[(2-methoxy-ethyl)-methyl-amino]-phenyl}-propyl ester], the IC50 reads like this: under setting [1], 34 µM; under setting [2], over 20 µM.

With `CC1=C(C(=O)OCCc2c(F)cccc2Cl)C(CO)NC(=S)N1` (centres unmarked) [59″, 4-hydroxymethyl-6-methyl-2-thioxo-1,2,3,4-tetrahydro-pyrimidine-5-carboxylic acid 2-(2-chloro-6-fluoro-phenyl)-ethyl ester], the IC50 is 2.5 µM under setting [1] and 1 to 10 µM under setting [2].

Turning to `CC1=C(C(=O)OCCc2c(F)c(F)c(F)c(F)c2F)C(CF)NC(=S)N1` (centres unmarked) [60′, 4-fluoromethyl-6-methyl-2-thioxo-1,2,3,4-tetrahydro-pyrimidine-5-carboxylic acid 2-pentafluorophenyl-ethyl ester], the IC50 (concentration at which 50% of HCV proteins was decreased, Table 2, read-out: IC50) amounted to 4 µM.

Source of the values: patent publication US20060116390A1, “Hepatitis c virus inhibitors” (priority 2003, published 2006).
